From EPA's ToxValDB 9.5

Experiments:
Rattus norvegicus [1] = conditions: oral
Rattus norvegicus [2] = conditions: oral; for LD50: acute; for NOAEL (% diet): short-term, duration: 29 days
[3] = reproduction developmental, duration: 10 days, gavage, F, Sprague-Dawley
[4] = subchronic, duration: 13 weeks, diet
[5] = subchronic, gavage, M, Sprague-Dawley, Clinical Observation: Salivation Locomotor activity decrease, BradypneaIncomplete eyelid opening + Body Weight Changes: decrease + Blood …
[6] = subchronic, gavage, M, Sprague-Dawley, Body Weight Changes: Body weight gain decrease + Food Consumption: Food consumption decrease + Blood Chemistry: ALP decrease, TG decrease, …
[7] = reproduction developmental, duration: 32 days, gavage, Sprague-Dawley, generation: F0
[8] = short-term, duration: 28 days, gavage, F, Sprague-Dawley, Clinical Observation: Locomotor activity decrease, Crouching position + Functional Observational Battery: Reactivity decrease + Body Weight …
[9] = short-term, duration: 28 days, gavage, M, Sprague-Dawley, Clinical Observation: Locomotor activity decrease, Crouching position + Functional Observational Battery: Reactivity decrease + Body Weight …

SMILES: O=C(O)C1CCC(c2ccc(Cl)cc2)CC1 (centres undefined)
- NOEL (Rattus norvegicus [1]; short-term, duration: 28 days, gavage, M/F, Deaths + Clinical Observation: Abnormal gait Lethargy Piloerection Ptosis + Blood Chemistry: GPT increase, ALP increase, TP increase, ALB …): < 12 mg/kg-day

SMILES: O=C1Oc2cc3c(cc2=C1c1ccccc1)OC(=O)C=3c1ccc(OCC2CCCO2)cc1 (centres undefined)
- NOEL (Rattus norvegicus [1]; short-term, duration: 28 days, gavage): 1000 mg/kg-day

SMILES: CC(C)(C)c1cc(N=C(NO)c2ccc([N+](=O)[O-])cc2)n[nH]1
- NOEL (Rattus norvegicus [1]; short-term, duration: 28 days, gavage, M/F, Body Weight Changes: Weight gain decrease + Hematology: RET increase, RBC decrease, HGB decrease, WBC increase, MCV increase, MCH increase, …): < 4 mg/kg-day

SMILES: CC(C)CCCCCOC(=O)CCc1cc(C(C)(C)C)c(O)c(C(C)(C)C)c1
- NOEL (Rattus norvegicus [1]; short-term, duration: 28 days, gavage, M/F, Hematology: APTT increase + Organ Weight: Liver increase + Histopathology: Liver - Hypertrophy, centrilobular, hepatocyte Thyroid - …): < 5 mg/kg-day

SMILES: CC(=O)CC(=O)Nc1ccc(-c2ccc(NC(=O)CC(C)=O)c(C)c2)cc1C
- NOEL (Rattus norvegicus [1]; short-term, duration: 28 days, gavage, M/F, Crl:CD(SD), Body Weight Changes: decrease + Food Consumption: decrease + Water Consumption: decrease + Urinalysis: Volume decrease + Blood Chemistry: …): 8 mg/kg-day

SMILES: Cc1cc(S(=O)(=O)[O-])c(N=Nc2c([O-])c(C(=O)O)cc3ccccc23)cc1Cl.[Ba+2]
- LD50 (Rattus norvegicus [2]; gavage): ≥ 5000 mg/kg

SMILES: CC1COCc2cc3c(cc21)C(C)(C)C(C)C3(C)C (centres undefined)
- LOAEL (Rattus norvegicus [2]; [3]): 150 mg/kg-day
- NOAEL (Rattus norvegicus [2]; [3]): 50 mg/kg-day
- NOAEL (Rattus norvegicus [2]; reproduction developmental, duration: 10 days, gavage, Sprague-Dawley, generation: F1): 150 mg/kg-day
- NOAEL (Rattus norvegicus [2]; reproduction developmental, gavage): 20 mg/kg-day
- LOAEL (Rattus norvegicus [2]; [4]): 300 mg/kg-day
- NOAEL (Rattus norvegicus [2]; [4]): 150 mg/kg-day

SMILES: CCCCCCCCCCCCc1ccc(S(=O)(=O)[O-])cc1.COc1ccc(C[N+](C)(C)c2ccccc2)cc1
- NOEL (Rattus norvegicus [1]; short-term, duration: 28 days, gavage, M/F, Clinical Observation: Salivation + Urinalysis: Occult blood + Blood Chemistry: GPT increase, T-CHO increase, K increase, GOT increase, TG …): 25 mg/kg-day

SMILES: CCCCCCC[CH2][Sn]([S]CC(=O)OCCCCCC(C)C)([S]CC(=O)OCCCCCC(C)C)[S]CC(=O)OCCCCCC(C)C
- NOAEL (Rattus norvegicus [1]; subchronic, duration: 13 weeks, diet, M, CIVO, Wistar-derived, Relative Organ Weight: Kidney increase, Liver decrease + Histopathology: Kidney-Increased granularity, tubular epithelial cells): 28.8 mg/kg-day
- NOAEL (Rattus norvegicus [1]; subchronic, duration: 13 weeks, drinking water, M/F, CIVO, Wistar-derived, Urinalysis: Epithelial cell increase, Crystals increase + Hematology: HGB decrease + Blood Chemistry: BUN increase + Relative Organ Weight: …): < 45.6 mg/kg-day

SMILES: CCCCn1c(O)c(C#N)c(C)c(N=Nc2ccc([N+](=O)[O-])cc2Cl)c1=O
- NOEL (Rattus norvegicus [1]; short-term, duration: 28 days, gavage, M/F, Blood Chemistry: GOT increase, T-bil increase + Organ Weight: Liver increase): 250 mg/kg-day

SMILES: CCn1cc(C(=O)[O-])c(=O)c2cc3occc3nc21.[Na+]
- NOEL (Rattus norvegicus [1]; chronic, duration: 26 weeks, gavage, M/F, Clinical Observation: Salivation + Body Weight Changes: Gain decrease + Hematology: WBC decrease + Blood Chemistry: A/G increase + Organ …): 10 mg/kg-day

SMILES: COc1cc(N=Nc2ccc3cc(S(=O)(=O)[O-])c(N=Nc4cc(OC)c(N=Nc5ccc(N)cc5S(=O)(=O)[O-])cc4OC)c(O)c3c2)c(OC)cc1N.[Na+].[Na+]
- NOEL (Rattus norvegicus [1]; short-term, duration: 28 days, gavage, M/F, Body Weight Changes: Body weight gain decrease + Food Consumption: decrease + Hematology: GOT increase, GPT increase, TG decrease + Organ …): 2 mg/kg-day

SMILES: COc1cc(S(=O)(=O)CCOS(=O)(=O)O)c(OC)cc1N
- NOEL (Rattus norvegicus [1]; short-term, duration: 28 days, gavage, F, Blood Chemistry: Na increase + Relative Organ Weight: Liver increase, Kidney increase): 30 mg/kg-day

SMILES: COCc1ccc(COC)cc1 [1,4-Bis(methoxymethyl)benzene]
- NOAEL (Rattus norvegicus [1]; [5]): 50 mg/kg-day
- NOEL (Rattus norvegicus [1]; [5]): 50 mg/kg-day

SMILES: O=C(O)C1CCC(C(=O)O)CC1 (centres undefined) [1,4-Cyclohexanedicarboxylic acid]
- LD50 (Rattus norvegicus [2]; gavage, Sprague-Dawley): 2080 mg/kg
- NOAEL (% diet) (Rattus norvegicus [2]; diet, F, Sprague-Dawley): 1
- NOAEL (% diet) (Rattus norvegicus [2]; diet, M, Sprague-Dawley): 1
- NOAEL (Rattus norvegicus [2]; subchronic, duration: 90 days, gavage, F, Wistar): 300 mg/kg-day
- NOAEL (Rattus norvegicus [2]; subchronic, duration: 90 days, gavage, M, Wistar): 300 mg/kg-day

SMILES: C1CN2CCN1CC2 [1,4-Diazabicyclo[2.2.2]octane]
- NOAEL (Rattus norvegicus [1]; short-term, duration: 29 days, gavage, M, Sprague-Dawley, Body Weight Changes: Weight gain decrease + Food Consumption: decrease + Histopathology: Kidney: Inflammation, chronic Kidney: Proliferation): 100 mg/kg-day

SMILES: C1=CCCC=CCCC=CCC1 [1,5,9-Cyclododecatriene]
- NOEL (Rattus norvegicus [1]; subchronic, duration: 42 days, gavage, M, CD(SD), Clinical Observation: Salivation + Body Weight Changes: Weight gain decrease + Hematology: PT increase, APTT increase, Fibrinogen increase…): 12 mg/kg-day
- NOAEL (Rattus norvegicus [1]; subchronic, duration: 55 days, gavage, M, Sprague-Dawley, Body Weight Changes: Weight gain decrease + Food Consumption: increase + Urinalysis: Vol increase + Blood Chemistry: TG decrease + Absolute …): 30 mg/kg-day

SMILES: O=S(=O)([O-])c1cccc2c(S(=O)(=O)[O-])cccc12.[Na+].[Na+] [1,5-Naphthalenedisulfonic acid, disodium salt]
- NOEL (Rattus norvegicus [1]; subchronic, gavage, M, Sprague-Dawley, Clinical Observation: Soft stool Diarrhea + Necropsy: Stomach/Forestomach-Elevation of limiting ridge Cecum-Enlargement + Histopathology: …): 40 mg/kg-day

SMILES: C(CCCOCC1CO1)CCOCC1CO1 (centres undefined) [1,6-Hexanediol diglycidyl ether]
- NOAEL (Rattus norvegicus [1]; [6]): 30 mg/kg-day
- NOEL (Rattus norvegicus [1]; [6]): 30 mg/kg-day

SMILES: ClCCc1ccccc1 [1-Chloro-2-phenylethane]
- NOEL (Rattus norvegicus [1]; short-term, duration: 28 days, gavage, M/F, Sprague-Dawley, Food Consumption: decrease + Urinalysis: Volume increase, Prot decrease + Hematology: RBC increase, MCV decrease, MCH decrease + Absolute …): 60 mg/kg-day

SMILES: Clc1ccc(OCOCC#CI)cc1 [1-Chloro-4-(((3-iodo-2-propynyl)oxy)methoxy)benzene]
- NOEL (Rattus norvegicus [1]; subchronic, gavage, M, Sprague-Dawley, Clinical Observation: Salivation Loose stool + Body Weight Changes: decreaseor decrease(trend) + Food Consumption: decrease + Hematology: …): 8 mg/kg-day

SMILES: O=C1c2ccccc2C(=O)c2c(Cl)cccc21 [1-Chloroanthraquinone]
- NOEL (Rattus norvegicus [1]; short-term, duration: 28 days, gavage, M/F, Sprague-Dawley, Clinical Observation: Brown urine + Functional Observational Battery: Landing foot splay decrease, Locomotor activity decrease + Food …): < 4 mg/kg-day

SMILES: CCCCCCCCCCCCCl [1-Chlorododecane]
- LD50 (Rattus norvegicus [2]; gavage, Sprague-Dawley): > 2000 mg/kg
- LOAEL (Rattus norvegicus [2]; [7]): 300 mg/kg-day
- NOAEL (Rattus norvegicus [2]; [7]): 100 mg/kg-day
- LOAEL (Rattus norvegicus [2]; reproduction developmental, duration: 32 days, gavage, Sprague-Dawley, generation: F1): 1000 mg/kg-day

SMILES: Clc1cccc2ccccc12 [1-Chloronaphthalene]
- LOEL (Rattus norvegicus [1]; [8]): 100 mg/kg-day
- NOEL (Rattus norvegicus [1]; [8]): 30 mg/kg-day
- LOEL (Rattus norvegicus [1]; [9]): 100 mg/kg-day
- NOEL (Rattus norvegicus [1]; [9]): 30 mg/kg-day

SMILES: CN1CCNCC1 [1-Methylpiperazine]
- NOEL (Rattus norvegicus [1]; subchronic, gavage, M, Sprague-Dawley, Body Weight Changes: Gain decrease(trend)Gain rate decrease + Hematology: WBC decrease(trend)RET decrease, Eosinophil ratio decrease + Blood…): 80 mg/kg-day
